Results on eight molecules are retold here after patent US9745299B2, “Substituted tricyclic benzimidazoles as kinase inhibitors” (SELVITA SA, priority 2012, dated 2017).

Structures can show the parent of a compound that is named as a salt.

The target in one assay is T1, CDK8/CyclinC (Homo sapiens, UniProt P49336).
T1 construct: purchased ProQinase, Freiburg, Germany
The assay can be described thus: ADP-Glo Kinase Assay, CDK8/CyclinC. Further: ATP at apparent Km (53 µM). It counts as biochemical. The following applies: read-out: % inhibition at 1 μM CDK8/CyclinC. As for the experimental part: (§1) Testing of the compounds described in this invention was carried out using the ADP-Glo™ Kinase Assay from Promega Corporation (Madison, Wis., USA).
(§2) The ADP-Glo™ Kinase Assay is a luminescent ADP detection assay to measure kinase activity by quantifying the amount of ADP produced during a kinase reaction. The kinase assay is performed in kinase assay buffer (5 mM MOPS, pH 7.5, 5 mM MgCl2, 0.4 mM EDTA, 1.5 mM DTT). Test samples initially dissolved in DMSO at 10 mM were diluted with the assay buffer to 1000 nM. A 30 μL volume/well of a mixture of substrates containing ATP (final ATP concentration in each kinase assay was equal to its apparent ATP Km).
(§3) The assay was performed in two steps: first, after the kinase reaction, an equal volume of ADP-Glo™ Reagent was added to terminate the kinase reaction and deplete the remaining ATP. Second, the Kinase Detection Reagent was added to simultaneously convert ADP to ATP and allowed the newly synthesized ATP to be measured using a luciferase/luciferin reaction. The luminescent signal generated was proportional to the ADP concentration produced and was correlated with kinase activity.
(In general: ADP-Glo first removes unused ATP, then detects ADP through luciferase.)

The next assay deals with T2, CDK9/CyclinT (Homo sapiens, UniProt P50750).
T2 construct: purchased Proqinase, Freiburg, Germany
The assay can be described thus: ADP-Glo Kinase Assay, CDK9/CyclinT. Further: ATP at apparent Km (26 µM). Format: biochemical. The following applies: read-out: % inhibition at 1 μM CDK9/CyclinT. As for the experimental part:
as §1, §2, §3

For the next assay, the target named is T3, CDK1/CyclinB (Homo sapiens, UniProt P06493).
T3 construct: purchased Millipore, Billerica, Mass., USA
Nature of the assay: ADP-Glo Kinase Assay, CDK1/CyclinB. Further: ATP at apparent Km (20 µM). Format: biochemical. The conditions noted are these: read-out: % inhibition at 1 μM CDK1/CyclinB. On the procedure: Testing of the compounds described in this invention was carried out using the ADP-Glo™ Kinase Assay from Promega Corporation (Madison, Wis., USA). […] The ADP-Glo™ Kinase Assay is a luminescent ADP detection assay to measure kinase activity by quantifying the amount of ADP produced during a kinase reaction. The kinase assay is performed in kinase assay buffer (5 mM MOPS, pH 7.5, 5 mM MgCl2, 0.4 mM EDTA, 1.5 mM DTT). Test samples initially dissolved in DMSO at 10 mM were diluted with the assay buffer to 1000 nM. A 30 μL volume/well of a mixture of substrates containing ATP (final ATP concentration in each kinase assay was equal to its apparent ATP Km). […] The assay was performed in two steps: first, after the kinase reaction, an equal volume of ADP-Glo™ Reagent was added to terminate the kinase reaction and deplete the remaining ATP. Second, the Kinase Detection Reagent was added to simultaneously convert ADP to ATP and allowed the newly synthesized ATP to be measured using a luciferase/luciferin reaction. The luminescent signal generated was proportional to the ADP concentration produced and was correlated with kinase activity.

The target in the next assay is T4, CDK2/CyclinE (Homo sapiens, UniProt P24941).
T4 construct: purchased Millipore, Billerica, Mass., USA
The assay can be described thus: ADP-Glo Kinase Assay, CDK2/CyclinE. The following applies: read-out: % inhibition at 1 μM CDK2/CyclinE. It counts as biochemical. On the procedure: as §1, §2, §3

Another assay has as its target T5, CDK5/p25 (Homo sapiens, UniProt Q00535).
T5 construct: purchased Millipore, Billerica, Mass., USA
The assay can be described thus: ADP-Glo Kinase Assay, CDK5/p25. Further: ATP at apparent Km (12 µM). The following applies: read-out: % inhibition at 1 μM CDK5/p25. Format: biochemical. As for the experimental part: as §1, §2, §3

In a further assay the target is T6, CDK7/CyclinH/MAT1 (Homo sapiens, UniProt P50613).
T6 construct: purchased Millipore, Billerica, Mass., USA
The assay can be described thus: ADP-Glo Kinase Assay, CDK7/CyclinH/MAT1. Format: biochemical. The following applies: read-out: % inhibition at 1 μM CDK7/CyclinH/MAT1. As for the experimental part: as §1, §2, §3

A further assay deals with HCT116 cells. Nature of the assay: MTS viability assay, HCT116. Format: cell-based. The conditions noted are these: Homo sapiens, HCT-116, HCT116, 72 hour incubation, read-out: IC50 [μM] HCT116 ED50. From the text:
(§4) The viability of CDK8 expressing cells can be evaluated using a tetrazolium salt reduction cell-based assay. In viable cells this colorimetric assay can measure mitochondrial reduction of a tetrazolium component (MTS) into an […] formazan product. For MTS viability assay, human colon cancer cell lines were used (SW480 and HCT116 cell lines), containing elevated levels of CDK8 protein and highly dependent on its expression for proliferation [see, Firenstein et al. Nature 455 (25):547-551, (2008)]. These cell lines were used to determine the activity of the compounds provided herein to inhibit CDK8 in intact cells. Human tumor cell lines were obtained from ATCC (Rockville Md. USA). In each case, and by methods known to those practiced in the art of cell culture, vaiability was measured after 72 hour incubation with the compounds provided herein using a standard MTS protocol (CellTiter 96® AQueous Non-Radioactive Cell Proliferation Assay).
(§5) Briefly, cells were plated at 10,000-20,000 cells per well in DMEM medium supplemented with 10% fetal bovine serum. The compound plate was set up by aliquoting into column 1 of a 96-well plate, the negative control (DMSO), aliquoting into column 12 the positive control, and titrating the test compound in serial dilutions into columns 2-11. An aliquot from each well of the compound plate was transferred to the plated cells and then incubated at 37° C. in 5% CO2. 20 μL of MTS tetrazolium was added to each well of optical plate and the cells were incubated at 37° C. in 5% CO2 for 2 hours. The absorbance was measured at 490 nm using a microplate reader.
On the technique in general: Tetrazolium assays rely on reduction of a dye to a coloured formazan, in cell work by metabolically active cells.

For a further assay, the system named is SW480 cells. The assay can be described thus: MTS viability assay, SW480. Format: cell-based. The following applies: Homo sapiens, SW480, 72 hour incubation, read-out: IC50 [μM] SW-480 ED50.
From the text: as §4, §5

What is called IC50 is the concentration at which inhibition is half-maximal.

T6 sequence (P50613 whole entry): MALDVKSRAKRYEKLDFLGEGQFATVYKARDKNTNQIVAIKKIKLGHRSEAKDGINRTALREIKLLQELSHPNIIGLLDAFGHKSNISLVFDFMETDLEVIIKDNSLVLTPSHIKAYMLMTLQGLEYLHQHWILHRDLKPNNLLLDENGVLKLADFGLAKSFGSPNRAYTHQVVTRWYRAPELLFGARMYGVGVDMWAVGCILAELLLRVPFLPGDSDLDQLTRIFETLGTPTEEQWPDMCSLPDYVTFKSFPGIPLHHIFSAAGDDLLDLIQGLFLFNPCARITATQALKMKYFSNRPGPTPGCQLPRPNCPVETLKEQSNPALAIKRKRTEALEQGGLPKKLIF
T6 sequence (P51946 whole entry partner): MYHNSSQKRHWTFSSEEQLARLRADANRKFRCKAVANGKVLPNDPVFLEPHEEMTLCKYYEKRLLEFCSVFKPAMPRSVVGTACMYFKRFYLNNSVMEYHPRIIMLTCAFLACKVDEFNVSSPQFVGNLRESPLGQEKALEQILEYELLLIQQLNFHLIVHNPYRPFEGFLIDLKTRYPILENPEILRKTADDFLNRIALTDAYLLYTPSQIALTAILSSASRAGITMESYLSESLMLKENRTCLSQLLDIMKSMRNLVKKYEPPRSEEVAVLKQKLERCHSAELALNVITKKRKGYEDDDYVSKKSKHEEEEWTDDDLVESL
T6 sequence (P51948 whole entry partner): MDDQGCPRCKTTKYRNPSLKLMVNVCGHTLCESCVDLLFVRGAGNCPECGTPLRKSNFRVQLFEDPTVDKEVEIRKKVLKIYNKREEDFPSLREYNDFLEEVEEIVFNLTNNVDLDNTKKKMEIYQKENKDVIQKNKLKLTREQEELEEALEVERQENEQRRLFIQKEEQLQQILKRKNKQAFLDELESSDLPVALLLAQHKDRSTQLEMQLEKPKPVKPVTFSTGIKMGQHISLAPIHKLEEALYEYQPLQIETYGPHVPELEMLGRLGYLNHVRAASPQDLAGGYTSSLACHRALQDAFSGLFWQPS
T2 sequence (P50750 whole entry): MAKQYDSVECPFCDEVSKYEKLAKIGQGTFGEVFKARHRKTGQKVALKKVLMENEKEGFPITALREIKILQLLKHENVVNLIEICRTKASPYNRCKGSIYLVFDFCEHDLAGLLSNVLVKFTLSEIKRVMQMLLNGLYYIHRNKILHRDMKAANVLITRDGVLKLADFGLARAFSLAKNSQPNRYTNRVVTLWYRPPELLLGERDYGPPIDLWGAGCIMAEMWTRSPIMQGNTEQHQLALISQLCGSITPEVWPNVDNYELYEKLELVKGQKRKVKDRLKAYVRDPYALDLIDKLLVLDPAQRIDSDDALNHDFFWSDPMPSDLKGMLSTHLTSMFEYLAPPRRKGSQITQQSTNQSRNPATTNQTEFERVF
T2 sequence (O60563 whole entry partner): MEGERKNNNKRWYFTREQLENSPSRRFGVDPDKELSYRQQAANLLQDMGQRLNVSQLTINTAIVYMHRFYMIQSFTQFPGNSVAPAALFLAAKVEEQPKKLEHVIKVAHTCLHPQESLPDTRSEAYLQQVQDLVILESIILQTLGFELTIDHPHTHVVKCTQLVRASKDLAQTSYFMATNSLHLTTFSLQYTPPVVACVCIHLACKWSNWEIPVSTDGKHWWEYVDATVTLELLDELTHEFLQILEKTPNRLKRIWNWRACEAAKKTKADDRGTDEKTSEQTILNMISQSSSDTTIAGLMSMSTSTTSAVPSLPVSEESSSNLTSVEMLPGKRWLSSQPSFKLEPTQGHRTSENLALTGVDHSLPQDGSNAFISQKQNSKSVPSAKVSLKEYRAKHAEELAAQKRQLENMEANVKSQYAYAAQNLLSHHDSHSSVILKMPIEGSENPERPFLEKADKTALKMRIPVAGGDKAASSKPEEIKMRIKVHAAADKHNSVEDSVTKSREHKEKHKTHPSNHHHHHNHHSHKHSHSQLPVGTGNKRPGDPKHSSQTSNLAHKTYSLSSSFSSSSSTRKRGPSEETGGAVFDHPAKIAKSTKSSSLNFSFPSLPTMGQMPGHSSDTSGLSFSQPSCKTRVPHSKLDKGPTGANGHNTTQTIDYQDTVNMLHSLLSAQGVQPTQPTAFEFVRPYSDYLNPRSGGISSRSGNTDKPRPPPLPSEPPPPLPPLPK
T5 sequence (Q00535 whole entry): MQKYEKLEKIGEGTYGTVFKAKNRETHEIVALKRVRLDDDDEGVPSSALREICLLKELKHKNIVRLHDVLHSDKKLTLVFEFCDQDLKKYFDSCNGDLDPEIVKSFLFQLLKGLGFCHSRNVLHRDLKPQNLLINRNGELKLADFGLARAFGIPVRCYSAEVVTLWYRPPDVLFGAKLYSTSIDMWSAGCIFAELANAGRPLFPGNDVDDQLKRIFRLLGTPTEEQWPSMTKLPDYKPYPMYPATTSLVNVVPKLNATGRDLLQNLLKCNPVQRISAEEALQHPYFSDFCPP
T5 sequence (Q15078 99-307 partner limits assumed): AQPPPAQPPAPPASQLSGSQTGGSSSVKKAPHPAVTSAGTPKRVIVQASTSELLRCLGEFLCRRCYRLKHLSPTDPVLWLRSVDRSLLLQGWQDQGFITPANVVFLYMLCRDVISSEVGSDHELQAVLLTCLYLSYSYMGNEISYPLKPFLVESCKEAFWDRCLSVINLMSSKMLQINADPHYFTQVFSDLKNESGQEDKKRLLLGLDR
T3 sequence (P06493 whole entry): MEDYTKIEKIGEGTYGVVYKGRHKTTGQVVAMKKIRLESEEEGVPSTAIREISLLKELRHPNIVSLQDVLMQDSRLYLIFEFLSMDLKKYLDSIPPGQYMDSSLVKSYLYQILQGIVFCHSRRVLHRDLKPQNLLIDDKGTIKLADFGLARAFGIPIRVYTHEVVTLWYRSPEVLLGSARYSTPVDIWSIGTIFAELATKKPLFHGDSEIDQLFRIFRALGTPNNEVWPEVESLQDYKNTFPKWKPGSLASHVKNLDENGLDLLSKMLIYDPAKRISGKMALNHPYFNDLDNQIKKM
T3 sequence (P14635 whole entry partner): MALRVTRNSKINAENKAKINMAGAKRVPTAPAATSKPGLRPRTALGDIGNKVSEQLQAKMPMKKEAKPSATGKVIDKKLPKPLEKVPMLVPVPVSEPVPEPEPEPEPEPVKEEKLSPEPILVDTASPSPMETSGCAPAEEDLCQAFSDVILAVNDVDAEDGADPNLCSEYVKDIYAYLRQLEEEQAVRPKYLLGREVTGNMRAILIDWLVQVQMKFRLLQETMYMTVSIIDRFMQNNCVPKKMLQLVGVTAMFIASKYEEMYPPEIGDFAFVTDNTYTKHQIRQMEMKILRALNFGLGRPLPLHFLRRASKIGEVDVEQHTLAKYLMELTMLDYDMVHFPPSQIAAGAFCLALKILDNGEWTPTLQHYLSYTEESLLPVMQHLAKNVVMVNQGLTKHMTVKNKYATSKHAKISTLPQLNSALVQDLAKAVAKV
T1 sequence (P49336 whole entry): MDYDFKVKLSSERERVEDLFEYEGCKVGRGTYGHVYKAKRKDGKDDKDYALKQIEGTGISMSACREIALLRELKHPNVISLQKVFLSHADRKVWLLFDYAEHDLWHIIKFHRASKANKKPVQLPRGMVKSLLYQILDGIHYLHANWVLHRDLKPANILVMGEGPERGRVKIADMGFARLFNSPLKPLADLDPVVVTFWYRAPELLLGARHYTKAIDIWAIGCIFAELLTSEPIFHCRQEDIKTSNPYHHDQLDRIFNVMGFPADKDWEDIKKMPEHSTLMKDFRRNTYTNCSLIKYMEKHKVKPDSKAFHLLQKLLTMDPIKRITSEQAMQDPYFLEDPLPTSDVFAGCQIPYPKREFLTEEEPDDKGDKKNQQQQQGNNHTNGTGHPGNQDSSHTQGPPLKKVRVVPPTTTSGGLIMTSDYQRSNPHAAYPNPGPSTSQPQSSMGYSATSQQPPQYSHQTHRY
T1 sequence (P24863 whole entry partner): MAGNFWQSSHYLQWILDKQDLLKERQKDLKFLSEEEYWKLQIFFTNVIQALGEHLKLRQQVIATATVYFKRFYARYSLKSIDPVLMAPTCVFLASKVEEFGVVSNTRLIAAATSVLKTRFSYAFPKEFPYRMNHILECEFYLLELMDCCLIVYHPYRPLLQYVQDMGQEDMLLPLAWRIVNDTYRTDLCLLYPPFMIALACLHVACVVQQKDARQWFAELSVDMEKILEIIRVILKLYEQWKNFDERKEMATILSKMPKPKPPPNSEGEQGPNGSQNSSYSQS

Turning to `O=[N+]([O-])c1c(Br)c(Br)c2c3c1nc(N1CCNCC1)n3CCC2` [Example 1X], the inhibition at 1 µM was 71% at CDK8/CyclinC; 9% at CDK9/CyclinT; 15% on CDK1/CyclinB; 8% at CDK2/CyclinE; 27% at CDK5/p25; 0% on CDK7/CyclinH/MAT1. Also, the 50% inhibitory concentration (IC50) with HCT116 cells amounted to 6.7 µM; in the assay with SW480 cells it was 1.4 µM.
Take `Brc1c(Br)c2c3c(nc(N4CCNCC4)n3CCC2)c1I` [Example 1Y]: the inhibition at 1 µM was determined as 100% at CDK8/CyclinC; 39% at CDK9/CyclinT; 32% on CDK1/CyclinB; 11% at CDK2/CyclinE; 4% at CDK5/p25; 0% on CDK7/CyclinH/MAT1. Further, the figures for the half-inhibitory concentration (IC50) in the assay on HCT116 cells and in the assay on SW480 cells were 1.3 µM and 0.7 µM, respectively.
Turning to `CCN(CC)c1nc2c(Br)c(Br)c(Br)c3c2n1CCC3` [Example 3I], the inhibition at 1 µM at CDK8/CyclinC was 85%; on CDK9/CyclinT it was 14%; on CDK1/CyclinB, 0%; at CDK2/CyclinE, 0%; at CDK5/p25 it was 14%; at CDK7/CyclinH/MAT1 it was 0%. Moreover, the IC50 amounted to 6.8 µM in the assay on HCT116 cells and 5 µM in the assay with SW480 cells.
On to `CN1CCN(c2nc3c(Br)c(Br)c(Br)c4c3n2CCC4)CC1` [Example 3M], for which the inhibition at 1 µM stood at 75% at CDK8/CyclinC; 17% on CDK9/CyclinT; 7% at CDK1/CyclinB; 2% at CDK2/CyclinE; 36% on CDK5/p25; 0% on CDK7/CyclinH/MAT1. The IC50 with HCT116 cells was determined as 1.2 µM; with SW480 cells it was 2.3 µM.
With `CC1CN(c2nc3c(Br)c(Br)c(Br)c4c3n2CCC4)CCN1` (stereo not shown) [Example 3P], the inhibition at 1 µM was found to be 88% at CDK8/CyclinC; 22% at CDK9/CyclinT; 8% at CDK1/CyclinB; 5% on CDK2/CyclinE; 0% at CDK5/p25; 16% at CDK7/CyclinH/MAT1. For the same molecule, the IC50 in the assay on HCT116 cells came to 9.3 µM; with SW480 cells it was 1.4 µM.
Regarding `Cc1c(Br)c(Br)c2c3c1nc(C1CCN(C)CC1)n3CCC2` [Example 7A, 7,8-dibromo-9-methyl-2-(1-methylpiperidin-4-yl)-5,6-dihydro-4H-imidazo[4,5,1-ij]quinoline hydrochloride], the inhibition at 1 µM amounted to 92% on CDK8/CyclinC; 19% at CDK9/CyclinT; 0% at CDK1/CyclinB; 6% on CDK2/CyclinE; 0% at CDK5/p25; 0% on CDK7/CyclinH/MAT1. In addition, the 50% inhibitory concentration (IC50) in the assay on HCT116 cells and in the assay on SW480 cells was 1.3 µM in each case.
Regarding `Cc1c(Br)c(Br)c2c3c1nc(C1CCNCC1)n3CCC2` [Example 7C], the inhibition at 1 µM on CDK8/CyclinC came out at 83%; on CDK9/CyclinT, 20%; on CDK1/CyclinB it was 0%; at CDK2/CyclinE it was 7%; at CDK5/p25 it was 0%; at CDK7/CyclinH/MAT1, 0%. In addition, the IC50 in the assay on HCT116 cells was 1.1 µM; in the assay with SW480 cells, 0.9 µM.
Regarding `Brc1c(Br)c2c3c(nc(C4CCNCC4)n3CCC2)c1Br` [Example 7E], the inhibition at 1 µM at CDK8/CyclinC was 94%; on CDK9/CyclinT, 39%; at CDK1/CyclinB, 43%; on CDK2/CyclinE, 22%; at CDK5/p25, 5%; on CDK7/CyclinH/MAT1, 15%. Also, the IC50 amounted to 0.3 µM with HCT116 cells and 0.6 µM in the assay with SW480 cells.
